Results: article PMC3048764 (Brain research, 2010)

What was measured:
[1] = tested on: HT-22 (murine hippocampal) cells; settings: cited from earlier work; for neuroprotection against toxicity, in words: compared with βE2 or parent compound, ref Perez et al., 2005b; for neuroprotection of non-phenolic estrogens, in words: all of the structure-activity studies
[2] = tested on: SK-N-SH neuroblastoma cells; settings: up to 200 nM; ref Green et al. (1997b); cited from earlier work
[3] = tested on: HT-22 (murine hippocampal) cells; settings: cited from earlier work
ERα = settings: competitive binding; ref Perez et al. (2005b); cited from earlier work
ERβ = settings: competitive binding; ref Perez et al. (2005b); cited from earlier work
[4] = tested on: HT-22 (murine hippocampal) cells; assay type: cell-based; settings: insult not named
uterine weights = assay: Uterine weight; settings: 1 day of exposure
[5] = tested on: HT-22 (murine hippocampal) cells; assay: Neuroprotection against glutamate toxicity, calcein-AM viability assay; assay type: cell-based; settings: 10 μM concentration, paradigm of Behl's group (1997)
[6] = tested on: lipid peroxidation in rat brain homogenates; settings: read-out: IC50 of lipid peroxidation seen by other groups; ref Hall et al., 1991; cited from earlier work
HT-22 cells = assay: DCF assay of reactive oxygen species, glucose oxidase insult; assay type: cell-based; settings: HT-22 cells insulted with glucose oxidase

For COc1cc2c(cc1C13CC4CC(CC(C4)C1)C3)[C@H]1CC[C@]3(C)[C@@H](O)CC[C@H]3[C@@H]1CC2 [ZYC23, 3-O-methyl analog of (17beta)-2-(1-adamantyl)estradiol], the “neuroprotection against toxicity, in words” value [1] is given as “failed to protect cells against toxicity induced cell death”.

For C#C[C@]1(O)CC[C@H]2[C@@H]3CCc4cc(OC)ccc4[C@H]3CC[C@@]21C [mestranol], the “neuroprotection of non-phenolic estrogens, in words” value [1] is listed as “did not have protect effects”.

In the case of CC(=O)[C@H]1CC[C@H]2[C@@H]3CCC4=CC(=O)CC[C@]4(C)[C@H]3CC[C@]12C [progesterone], the “protection against serum deprivation” value [2] is listed as “did not find progesterone to be protectiive” and the “neuroprotection against glutamate insult” value ([3]; 10 μM, ref Behl et al. (1997)) is listed as “did not find 10 μM progestrone (P4) to be neuroprotective”.

For C[C@]12CC(O)[C@@H]3c4ccc(O)cc4CC[C@H]3[C@@H]1CCC2=O (stereo partly shown) [Compound E1240], the “neuroprotection against toxicity, in words” value [1] is listed as “neuroprotection was completely abolished”.

For C[C@]12CC=C3c4ccc(O)cc4CC[C@H]3[C@@H]1CC[C@@H]2O [ZYC1], the “ERα binding, in words” value (ERα) is given as “did not drastically change the affinity” and the “ERβ binding, in words” value (ERβ) is given as “did not drastically change the affinity”.

For Cc1c(O)c(C23CC4CC(CC(C4)C2)C3)cc2c1CC[C@@H]1[C@@H]2CC[C@]2(C)C(=O)CC[C@@H]12 [ZYC26, 2-(1-adamantyl)-4-methylestrone], the “fold decrease in EC50 for protection against neurotoxicity, first value” ([4]; first of two values given 'respectively') is listed as “approximately 9 fold”, the “fold decrease in EC50 for protection against neurotoxicity, second value” ([4]; second of two values given 'respectively') is listed as roughly 4 fold and the “ERα binding, in words” value (ERα) is listed as “completely abolished the affinity”. The “ERβ binding, in words” value (ERβ) was “completely abolished the affinity”.

In the case of C[C@]12CC[C@@H]3c4ccc(O)cc4CC[C@H]3[C@@H]1CC[C@@H]2OC(=O)c1ccccc1 [ZYC30], the “neuroprotection against toxicity, in words” value [1] is given as “decreased the potency of the parent compound”.

For CCC(C)c1c(O)ccc2c1CC[C@@H]1[C@@H]2CC[C@]2(C)C(=O)CC[C@@H]12 (stereo partly shown) [ZYC17], the “ERα binding, in words” value (ERα) is listed as “completely inhibited estrogen receptor binding” and the “ERβ binding, in words” value (ERβ) is listed as “completely inhibited estrogen receptor binding”.

For CC12CCC3c4ccc(O)cc4CCC3C1CCC2O (stereo not shown) [PS2], the “neuroprotection against toxicity, in words” value [1] is given as “reduced neuroprotective potencies”.

For C[C@]12CC[C@@H]3c4ccc(O)cc4CC[C@H]3[C@@H]1CC1(CCCC1)C2=O [ZYC2], the “neuroprotection against toxicity, in words” value [1] is given as “did not enhance neuroprotection”.

For CC(=O)[C@H]1CC[C@H]2[C@@H]3CC[C@@H]4C[C@H](O)CC[C@]4(C)[C@H]3CC[C@]12C [pregnanolone], the “protection against glutamate insult at high dose” value ([3]; 10 μM dose, ref Gursoy et al. (2001)) is listed as “no protection” and the “concentration of optimal protection against glutamate insult” value ([3]; ref Gursoy et al. (2001)) is listed as 500 nM.

For C[C@]12CC[C@@H]3c4ccc(O)cc4CC[C@H]3[C@@H]1CC[C@H]2O [αE2], the “ERα binding, in words” value (ERα) is listed as “less affinity” and the “ERβ binding, in words” value (ERβ) is listed as “less affinity”.

In the case of C[C@]12CC[C@@H]3c4ccc(O)cc4CC[C@H]3[C@@H]1CCC2=O [Compound E1, estrone], the “increase of uterine weights” value (uterine weights) is reported as 71%.

In the case of C#C[C@]1(O)CC[C@H]2[C@@H]3CCc4cc(OC5CCCC5)ccc4[C@H]3CC[C@@]21C [quinestrol], the “neuroprotection of non-phenolic estrogens, in words” value [1] is listed as “did not have protect effects”.

For C[C@]12CC[C@@H]3c4ccc(O)cc4CC[C@H]3[C@@H]1CC[C@@H]2O [βE2, 17β-estradiol], the “protection against glutamate toxicity at fixed concentration” value [5] is given as “protective”, the IC50 [6] is given as 21 µM and the “decrease of ROS” value (HT-22 cells) is given as “not able to significantly decrease ROS”.
